Measured values published in PubChem BioAssay AID1963980 (Molecular Pharmacology Branch, DTP, NCI, 2024).

Tested on: 475296-252-R-J1-PDC spheroid viability
Assay: Anticancer human tumor 475296-252-R-J1-PDC patient-derived rectal carcinoma cell line growth inhibition [PI3K]
Conditions: spheroids with HUVEC and MSC; for IC50: curve of first compound; for viability, T/C: stronger effect = lower value
From the text: Combinatorial screen of targeted agents with the PI3K inhibitors inavolisib, alpelisib, duvelisib, and copanlisib in multi-cell type tumor spheroids
A high-throughput screen of multi-cell type tumor spheroids was designed to identify active combinations of targeted small molecules and PI3K pathway inhibitors. Complex spheroids include a stromal component modeled by human endothelial cells (HUVEC) and fibroblasts modeled by human mesenchymal stem cells (MSCs). The concentration ranges selected for each drug and investigational agent were based upon clinically achievable concentrations if the clinical Cmax of the agent was known.
Compounds. The drugs and investigational agents: inavolisib (NSC800729), alpelisib (NSC765974), duvelisib (NSC772469), copanlisib (NSC816437), ipatasertib (NSC767898), afuresertib (NSC778305), talazoparib (NSC767125), sapanisertib (NSC764658), selumetinib (NSC741078), tovorafenib (DAY101, NSC766906), vemurafenib (NSC761431), ravoxertinib (NSC781343), sotorasib (NSC818433), MRTX1133 (NSC 836407), abemaciclib (NSC 768073), palbociclib (NSC758247), venetoclax (NSC 766270), SY5609 (NSC837396), enzalutamide (NSC755605), and darolutamide (NSC825331), were obtained from the National Cancer Institute (NCI) Developmental Therapeutics Program Chemical Repository. The FDA-approved anticancer drug set is available from the NCI Developmental Therapeutics Program. […] The stock solutions were prepared in dimethyl sulfoxide (DMSO, Sigma-Aldrich, St. Louis, MO, cat. D2650) at 800-fold the tested concentration and stored at -70 degrees C prior to their use. All drugs and investigational agents were tested over a range starting from a high concentration at or near the clinical Cmax and decreasing in half-log increments. If the clinical Cmax for an agent had not been determined, the highest concentration tested was 10 microM.
Cell Culture. All cells were maintained in an incubator at 37 degrees C and 5% CO2 with 95% humidity. The PDC lines were cultured according to standard operating procedures established by the NCI PDMR (https://pdmr.cancer.gov/sops/default.htm). All PDCs were thawed and cultured in Matrigel-coated flasks prepared with a working solution of 1X Ham's F-12 nutrient mix, without supplementation (Invitrogen, Waltham, MA, cat. 11765054), 100 U/mL penicillin-streptomycin (Invitrogen, cat. 15140122), and 2.5% Matrigel (Corning Inc., Corning, NY, cat. 354248) for the first three passages. The 354836-022-R-J1-PDC, 475296-252-R-J1-PDC, and 997726-040-R-J2-PDC lines were cultured in 6A media, which includes advanced DMEM/F-12 (Thermo Fisher Scientific, cat. 12634028), 10 mM HEPES (Thermo Fisher Scientific, cat. 15630080), 1X GlutaMAX supplement (Thermo Fisher Scientific, cat. 35050061), 0.1 mg/mL primocin (InvivoGen, San Diego, CA, cat. ant-pm-2), 10% defined fetal bovine serum, heat inactivated (HyClone Laboratories Inc., Logan, UT, cat. SH30070.03HI), 50% L-WRN conditioned media (ATCC, cat. CRL-3276), 1.25 mM N-Acetyl-L-cysteine (Sigma-Aldrich, cat. A9165), 10 mM nicotinamide (Sigma-Aldrich, cat. N0636), 1X B-27 supplement (Thermo Fisher Scientific, cat. 17504044), 1X N-2 supplement (Thermo Fisher Scientific, cat. 17502048), and 10 microM Y-27632 dihydrochloride (Tocris Bioscience, Bristol, United Kingdom, cat. 1254). The 624824-186-R-J2-PDC line was cultured in 6C/Colon 1B media, which includes all 6A media components plus 50 ng/mL human EGF recombinant protein (Thermo Fisher Scientific, cat. PHG0311). […]

[1] = second compound 0.00316 µM, first compound 0.0316 µM
[2] = second compound 0.00316 µM, first compound 0.1 µM
[3] = second compound 0.01 µM, first compound 0.0316 µM
[4] = second compound 0.01 µM, first compound 0.1 µM
[5] = second compound 0.0316 µM, first compound 0.0316 µM
[6] = second compound 0.0316 µM, first compound 0.1 µM
[7] = second compound 0.1 µM, first compound 0.0316 µM
[8] = second compound 0.1 µM, first compound 0.1 µM
[9] = second compound 0.316 µM, first compound 0.0316 µM
[10] = second compound 0.316 µM, first compound 0.1 µM
[11] = second compound 1 µM, first compound 0.0316 µM
[12] = second compound 1 µM, first compound 0.1 µM
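Note: spheroids exposed to agents for seven days before readout.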

Question: What does the source list for `CC(C)n1nc(-c2ccc3oc(N)nc3c2)c2c(N)ncnc21` + CC(Nc1ccc2c(c1)OCCn1cc(N3C(=O)OCC3C(F)F)nc1-2)C(N)=O?
Answer: IC50 (second compound 0.00316 µM): > 0.1 µM; IC50 (second compound 0.01 µM): > 0.1 µM; IC50 (second compound 0.0316 µM): > 0.1 µM; IC50 (second compound 0.1 µM): > 0.1 µM; IC50 (second compound 0.316 µM): > 0.1 µM; IC50 (second compound 1 µM): > 0.1 µM; viability, T/C (second compound 0.00316 µM, first compound 0.000316 µM): 91%; viability, T/C (second compound 0.00316 µM, first compound 0.001 µM): 83.2%; viability, T/C (second compound 0.00316 µM, first compound 0.00316 µM): 89.2%; viability, T/C (second compound 0.00316 µM, first compound 0.01 µM): 73.2%; viability, T/C [1]: 74.9%; viability, T/C [2]: 58.7%; viability, T/C (second compound 0.01 µM, first compound 0.000316 µM): 97.3%; viability, T/C (second compound 0.01 µM, first compound 0.001 µM): 81.5%; viability, T/C (second compound 0.01 µM, first compound 0.00316 µM): 95.1%; viability, T/C (second compound 0.01 µM, first compound 0.01 µM): 85.7%; viability, T/C [3]: 82.3%; viability, T/C [4]: 61.4%; viability, T/C (second compound 0.0316 µM, first compound 0.000316 µM): 85.5%; viability, T/C (second compound 0.0316 µM, first compound 0.001 µM): 113%; viability, T/C (second compound 0.0316 µM, first compound 0.00316 µM): 94.8%; viability, T/C (second compound 0.0316 µM, first compound 0.01 µM): 89.8%; viability, T/C [5]: 77.7%; viability, T/C [6]: 58%; viability, T/C (second compound 0.1 µM, first compound 0.000316 µM): 83.5%; viability, T/C (second compound 0.1 µM, first compound 0.001 µM): 88%; viability, T/C (second compound 0.1 µM, first compound 0.00316 µM): 92%; viability, T/C (second compound 0.1 µM, first compound 0.01 µM): 88.6%; viability, T/C [7]: 77%; viability, T/C [8]: 59.6%; viability, T/C (second compound 0.316 µM, first compound 0.000316 µM): 83.8%; viability, T/C (second compound 0.316 µM, first compound 0.001 µM): 89%; viability, T/C (second compound 0.316 µM, first compound 0.00316 µM): 88.8%; viability, T/C (second compound 0.316 µM, first compound 0.01 µM): 82.7%; viability, T/C [9]: 74%; viability, T/C [10]: 58.7%; viability, T/C (second compound 1 µM, first compound 0.000316 µM): 87.4%; viability, T/C (second compound 1 µM, first compound 0.001 µM): 83.3%; viability, T/C (second compound 1 µM, first compound 0.00316 µM): 83%; viability, T/C (second compound 1 µM, first compound 0.01 µM): 85.8%; viability, T/C [11]: 71.1%; viability, T/C [12]: 55.2%

Question: With `CCCS(=O)(=O)Nc1ccc(F)c(C(=O)c2c[nH]c3ncc(-c4ccc(Cl)cc4)cc23)c1F` + CC(Nc1ccc2c(c1)OCCn1cc(N3C(=O)OCC3C(F)F)nc1-2)C(N)=O as the compound, how does the IC50 (second compound 0.00316 µM) read?
Answer: > 10 µM

Question: And the IC50 (second compound 0.01 µM)?
Answer: > 10 µM

Question: And the IC50 (second compound 0.0316 µM)?
Answer: > 10 µM

Question: What about the IC50 (second compound 0.1 µM) of the same compound?
Answer: > 10 µM

Question: And the IC50 (second compound 0.316 µM)?
Answer: > 10 µM

Question: What about the IC50 (second compound 1 µM) of the same compound?
Answer: > 10 µM

Question: And the viability, T/C [1]?
Answer: 84.5%

Question: What about the viability, T/C [2] of the same compound?
Answer: 84.3%

Question: What about the viability, T/C (second compound 0.00316 µM, first compound 0.316 µM) of the same compound?
Answer: 81.7%

Question: What about the viability, T/C (second compound 0.00316 µM, first compound 1 µM) of the same compound?
Answer: 85.2%

Question: And the viability, T/C (second compound 0.00316 µM, first compound 3.16 µM)?
Answer: 92.6%

Question: And the viability, T/C (second compound 0.00316 µM, first compound 10 µM)?
Answer: 101%

Question: And the viability, T/C [3]?
Answer: 102%

Question: What about the viability, T/C [4] of the same compound?
Answer: 89%

Question: And the viability, T/C (second compound 0.01 µM, first compound 0.316 µM)?
Answer: 90.4%

Question: And the viability, T/C (second compound 0.01 µM, first compound 1 µM)?
Answer: 83.2%

Question: And the viability, T/C (second compound 0.01 µM, first compound 3.16 µM)?
Answer: 82.6%

Question: What about the viability, T/C (second compound 0.01 µM, first compound 10 µM) of the same compound?
Answer: 91.7%

Question: And the viability, T/C [5]?
Answer: 97.5%

Question: What about the viability, T/C [6] of the same compound?
Answer: 94.8%

Question: What about the viability, T/C (second compound 0.0316 µM, first compound 0.316 µM) of the same compound?
Answer: 96.8%

Question: And the viability, T/C (second compound 0.0316 µM, first compound 1 µM)?
Answer: 89.8%

Question: And the viability, T/C (second compound 0.0316 µM, first compound 3.16 µM)?
Answer: 75.9%

Question: What about the viability, T/C (second compound 0.0316 µM, first compound 10 µM) of the same compound?
Answer: 88.3%

Question: What about the viability, T/C [7] of the same compound?
Answer: 83.8%

Question: And the viability, T/C [8]?
Answer: 96.6%

Question: And the viability, T/C (second compound 0.1 µM, first compound 0.316 µM)?
Answer: 89.6%

Question: What about the viability, T/C (second compound 0.1 µM, first compound 1 µM) of the same compound?
Answer: 84.5%

Question: What about the viability, T/C (second compound 0.1 µM, first compound 3.16 µM) of the same compound?
Answer: 81.4%

Question: And the viability, T/C (second compound 0.1 µM, first compound 10 µM)?
Answer: 81.9%

Question: What about the viability, T/C [9] of the same compound?
Answer: 77.4%

Question: And the viability, T/C [10]?
Answer: 94.5%

Question: And the viability, T/C (second compound 0.316 µM, first compound 0.316 µM)?
Answer: 89.5%

Question: And the viability, T/C (second compound 0.316 µM, first compound 1 µM)?
Answer: 79.1%

Question: What about the viability, T/C (second compound 0.316 µM, first compound 3.16 µM) of the same compound?
Answer: 81.4%

Question: What about the viability, T/C (second compound 0.316 µM, first compound 10 µM) of the same compound?
Answer: 70.4%

Question: What about the viability, T/C [11] of the same compound?
Answer: 90.7%

Question: And the viability, T/C [12]?
Answer: 92.6%

Question: And the viability, T/C (second compound 1 µM, first compound 0.316 µM)?
Answer: 80.4%

Question: And the viability, T/C (second compound 1 µM, first compound 1 µM)?
Answer: 90.3%

Question: And the viability, T/C (second compound 1 µM, first compound 3.16 µM)?
Answer: 83.1%

Question: What about the viability, T/C (second compound 1 µM, first compound 10 µM) of the same compound?
Answer: 72.7%
